# Measurements: patent US10138232B2, “Naphthyridinedione derivatives” (NOVARTIS AG, priority 2014, dated 2018)
# System: CFTR-Y122X (GFP-CFTR-Y122X-Renilla construct) in Hek293 cell lines
# Assay: CFTR-Y122X assay (dual reporter readthrough, Renilla luminescence)
# Format: cell-based
# Conditions: Homo sapiens, compounds incubated 24 h, tested up to 100 μM; for AC50: nonsense mutation suppression in the CFTR-Y122X assay; for Emax: nonsense mutation suppression, 100% activity = 14 mM paromomycin, read-out: Amax
# Text: In particular, compounds of formula (I), (I′), (Ia), (Ia′) or (Ib) I act as nonsense mutation suppressors on frequent PTCs, e.g. on Y122X in the mRNA of the cystic fibrosis conductance regulator protein (CFTR). This can be determined in vitro, for example, using cell lines expressing GFP-CFTR-Y122X-Renilla constructs as described herein.
# Activity of compounds of the present invention was examined in recombinant, dual reporter isogenic Hek293 cell lines (“CFTR-Y122X assay”). The engineered reporter constructs contained the 18 bp sequence strech corresponding to a common Y122X PTC mutation in CFTR class I mutant patients (see Sermet-Gaudelus, BMC Medicine, 2007, 5(5)). Instead of a tyrosine (Y) in position 122 of the CFTR protein a TGA stop codon interrupts the open reading frame (Y122X) of the corresponding mRNA. This TGA stop codon triplet (followed by the pyrimidine base cytosine) is permissive to aminoglycoside mediated translational readthrough which served as positive control for high throughput screening. A corresponding TAA stop codon variant and a wildtype non mutated construct was used for confirmation and counter screening. The CFTR sequence was sandwiched between an eGFP reporter, and a triple myc tag sequence fused to a full length Renilla reporter. All sequences, including an intron containing one positioned pre-eGFP (b-globin intron) were cloned in frame. The corresponding expression constructs were stably expressed in the isogenic HEK-R4 cell host (Invitrogen Incorp.) and selected by blasticidin resistance. The isogenic integration of the construct minimizes gene dose effects and improves assay reproducibility. Stably integrated single cell derived clones were selected and characterized for aminoglycoside mediated readthrough. […] Readthrough of Y122X accumulates an intracellular localized fusion protein approximately 65.5 kDa in size as controlled by western blot analysis and immunofluorescence using an anti-renilla antibody. The eGFP reporter pre-PTC mutation serves as visual control for genetic stability of the screening clones and minimizes protein degradation of small fusion protein amounts. In the assay, compound concentration was 10 μM. In miniaturized 1536 well format 2000 cells were dispensed in 4 μl/well and incubated for 24 h at 37° C., 5% CO2. 40 nl compounds were placed on the cells with control wells containing 1 ul Paramomycin and 14.4 mM final concentration. Compounds were incubated for 24 h. Renilla Glo substrate (2.5 ul) was added and plates were centrifuged and processed for luminescence measurement using various readers. Activity calculation was done using the equation: A1(%)=100*(S−NC)/(AC−NC) where AC, NC and S correspond to active controls (injection of Stimulation buffer=100% stimulation), neutral controls (buffer injection which Iloprost EC10) and screening samples (S). NC corresponds to 0% activity whereas AC is 100% activity (14 mM paromomycin). False positive artefacts were removed in confirmation and validation screening using the same assay format followed by counterscreening using the respective wildtype construct (w/o PTC mutation) cell model. Compounds were tested up to 100 μM compound concentration.
compound,measurement,value
"Cc1ccc2c(c1)c(=O)c1c(=O)n(-c3ccccc3)c(C(C)C)cc1n2C [Example 1.10, 3-isopropyl-5,8-dimethyl-2-phenylbenzo[b][1,6]naphthyridine-1,10(2H,5H)-dione]",AC50,7.3 µM
same,Emax,409%
"CC(C)c1cc2[nH]c3c(c(=O)c2c(=O)n1-c1ccccc1)CCC3 [Example 1.23, 3-isopropyl-2-phenyl-5,6,7,8-tetrahydro-1H-cyclopenta[b][1,6]naphthyridine-1,9(2H)-dione]",AC50,5.2 µM
same,Emax,414%
"Cc1cc2[nH]c3cc(C4CCC4)n(-c4ccccc4)c(=O)c3c(=O)c2s1 [Example 1.37, 6-cyclobutyl-2-methyl-7-phenylthieno[3,2-b][1,6]naphthyridine-8,9(4H,7H)-dione]",AC50,1.4 µM
same,Emax,164%
"Cc1csc2c(=O)c3c(=O)n(-c4ccccc4)c(C(C)C)cc3n(C)c12 [Example 1.21, 6-isopropyl-3,4-dimethyl-7-phenylthieno[3,2-b][1,6]naphthyridine-8,9(4H,7H)-dione]",AC50,5.4 µM
same,Emax,379%
COc1ccc2c(c1)c(=O)c1c(=O)n(-c3ccccc3)c(C(C)C)cc1n2C [Example 1.49],Emax,17%
"CC(C)c1cc2[nH]c3ccccc3c(=O)c2c(=O)n1-n1cccc1 [Example 2.17, 3-isopropyl-2-(1H-pyrrol-1-yl)benzo[b][1,6]naphthyridine-1,10(2H,5H)-dione]",AC50,9 µM
same,Emax,237%
"CC(C)c1cc2[nH]c3ccccc3c(=O)c2c(=O)n1C1CCCC1 [Example 2.3, 2-cyclopentyl-3-isopropylbenzo[b][1,6]naphthyridine-1,10(2H,5H)-dione]",AC50,0.4 µM
same,Emax,235%
"O=c1c2ccccc2[nH]c2cc(C3CCC3)n(N3CCCC3)c(=O)c12 [Example 2.7, 3-cyclobutyl-2-(pyrrolidin-1-yl)benzo[b][1,6]naphthyridine-1,10(2H,5H)-dione]",AC50,0.7 µM
same,Emax,197%
"CC(C)c1cc2c(c(=O)c3ccccc3n2C)c(=O)n1N1CCCCC1 [Example 2.14, 3-isopropyl-5-methyl-2-(piperidin-1-yl)benzo[b][1,6]naphthyridine-1,10(2H,5H)-dione]",AC50,1.7 µM
same,Emax,271%
"Cn1c2ccccc2c(=O)c2c(=O)n(C3CCCC3)c(C3CCC3)cc21 [Example 2.2, 3-cyclobutyl-2-cyclopentyl-5-methylbenzo[b][1,6]naphthyridine-1,10(2H,5H)-dione]",AC50,2.1 µM
same,Emax,262%
"O=c1c2ccccc2[nH]c2cc(C3CCC3)n(-c3ccccn3)c(=O)c12 [Example 2.5, 3-cyclobutyl-2-(pyridin-2-yl)benzo[b][1,6]naphthyridine-1,10(2H,5H)-dione]",AC50,2.7 µM
same,Emax,217%
"O=c1c2c([nH]c3cc(C4CCC4)n(-c4ccccc4)c(=O)c13)CCC2 [Example 1.26, 3-cyclobutyl-2-phenyl-5,6,7,8-tetrahydro-1H-cyclopenta[b][1,6]naphthyridine-1,9(2H)-dione]",AC50,3.3 µM
same,Emax,229%
"CC(C)c1cc2c(c(=O)c3ccccc3n2C)c(=O)n1-n1cccc1 [Example 2.18, 3-isopropyl-5-methyl-2-(1H-pyrrol-1-yl)benzo[b][1,6]naphthyridine-1,10(2H,5H)-dione]",AC50,17.6 µM
same,Emax,75%
"CC(C)c1cc2[nH]c3ccccc3c(=O)c2c(=O)n1-c1ccccc1 [Example 1.3, 3-isopropyl-2-phenylbenzo[b][1,6]naphthyridine-1,10(2H,5H)-dione]",AC50,1.1 µM
same,Emax,281%
"CC(C)c1cc2c(c(=O)c3ccccc3n2C)c(=O)n1-c1ccccn1 [Example 2.10, 3-isopropyl-5-methyl-2-(pyridin-2-yl)benzo[b][1,6]naphthyridine-1,10(2H,5H)-dione]",AC50,10 µM
same,Emax,177%
"CC(C)c1cc2c(c(=O)c3ccsc3n2C)c(=O)n1-c1ccccc1 [Example 1.13, 7-isopropyl-9-methyl-6-phenylthieno[2,3-b][1,6]naphthyridine-4,5(6H,9H)-dione]",AC50,8.6 µM
same,Emax,445%
"COc1cccc2c(=O)c3c(=O)n(-c4ccccc4)c(C(C)C)cc3[nH]c12 [Example 1.47, 3-isopropyl-6-methoxy-2-phenylbenzo[b][1,6]naphthyridine-1,10(2H,5H)-dione]",AC50,5.2 µM
same,Emax,312%
"CC(C)c1cc2[nH]c3ccccc3c(=O)c2c(=O)n1N1CCCCC1 [Example 2.13, 3-isopropyl-2-(piperidin-1-yl)benzo[b][1,6]naphthyridine-1,10(2H,5H)-dione]",AC50,1.8 µM
same,Emax,265%
"CC(C)c1cc2[nH]c3ccc(Cl)cc3c(=O)c2c(=O)n1-c1ccccc1 [Example 1.7, 8-chloro-3-isopropyl-2-phenylbenzo[b][1,6]naphthyridine-1,10(2H,5H)-dione]",AC50,2.4 µM
same,Emax,215%
"O=c1c2cccc3c2n(c2cc(C4CCC4)n(-c4ccccc4)c(=O)c12)CC3 [Example 1.45, 9-cyclobutyl-8-phenyl-1H-indolo[1,7-ab][1,6]naphthyridine-6,7(2H,8H)-dione]",AC50,0.6 µM
same,Emax,252%
"Cn1c2ccccc2c(=O)c2c(=O)n(-c3ccccc3)c(C3CCC3)cc21 [Example 1.2, 3-Cyclobutyl-5-methyl-2-phenylbenzo[b][1,6]naphthyridine-1,10(2H,5H)-dione]",AC50,1 µM
same,Emax,260%
"CC(C)c1cc2[nH]c3ccsc3c(=O)c2c(=O)n1-c1ccccc1 [Example 1.16, 6-isopropyl-7-phenylthieno[3,2-b][1,6]naphthyridine-8,9(4H,7H)-dione]",AC50,1.6 µM
same,Emax,344%
"Cc1c(C)n(C)c2cc(C3CCC3)n(-c3ccccc3)c(=O)c2c1=O [Example 1.25, 7-cyclobutyl-1,2,3-trimethyl-6-phenyl-1,6-naphthyridine-4,5(1 H,6H)-dione]",AC50,16.8 µM
same,Emax,87%
"CC(C)c1cc2c(c(=O)c3cc(F)ccc3n2C)c(=O)n1-c1ccccc1 [Example 1.6, 8-fluoro-3-isopropyl-5-methyl-2-phenylbenzo[b][1,6]naphthyridine-1,10(2H,5H)-dione]",AC50,7.7 µM
same,Emax,507%
"O=c1c2cc(Cl)ccc2[nH]c2cc(C3CCC3)n(-c3ccccc3)c(=O)c12 [Example 1.40, 8-chloro-3-cyclobutyl-2-phenylbenzo[b][1,6]naphthyridine-1,10(2H,5H)-dione]",AC50,1 µM
same,Emax,300%
"Cn1c2c(c(=O)c3c(=O)n(-c4ccccc4)c(C4CCC4)cc31)CCCC2 [Example 1.28, 3-cyclobutyl-5-methyl-2-phenyl-6,7,8,9-tetrahydrobenzo[b][1,6]naphthyridine-1,10(2H,5H)-dione]",AC50,12.8 µM
same,Emax,257%
"CC(C)c1cc2[nH]c3c(c(=O)c2c(=O)n1-c1ccccc1)CCCC3 [Example 1.22, 3-isopropyl-2-phenyl-6,7,8,9-tetrahydrobenzo[b][1,6]naphthyridine-1,10(2H,5H)-dione]",AC50,7.2 µM
same,Emax,413%
"CC(C)c1cc2c(c(=O)c3cccc4c3n2CC4)c(=O)n1-c1ccccc1 [Example 1.11, 9-isopropyl-8-phenyl-1H-indolo[1,7-ab][1,6]naphthyridine-6,7(2H,8H)-dione]",AC50,4 µM
same,Emax,276%
"Cn1c2cc(C3CCC3)n(-c3ccccc3)c(=O)c2c(=O)c2ccsc21 [Example 1.29, 7-cyclobutyl-9-methyl-6-phenylthieno[2,3-b][1,6]naphthyridine-4,5(6H,9H)-dione]",AC50,0.7 µM
same,Emax,286%
"Cn1c2ccc(Cl)cc2c(=O)c2c(=O)n(-c3ccccc3)c(C3CCC3)cc21 [Example 1.42, 8-chloro-3-cyclobutyl-5-methyl-2-phenylbenzo[b][1,6]naphthyridine-1,10(2H,5H)-dione]",AC50,3.9 µM
same,Emax,134%
"COc1ccc2[nH]c3cc(C(C)C)n(-c4ccccc4)c(=O)c3c(=O)c2c1 [Example 1.50, 3-isopropyl-8-methoxy-2-phenylbenzo[b][1,6]naphthyridine-1,10(2H,5H)-dione]",AC50,16.9 µM
same,Emax,110%
